Laboratory results from patent US10856562B2, “Flavor composition and edible compositions containing same” (MARS, INCORPORATED, priority 2013, dated 2020).
Square brackets hold non-standard residues; d marks the D form. Ends that are not written are not given here. pGlu = O=C1CC[C@@H](C(=O)O)N1

System: panelists
Assay: Attribute perception scores of flavor enhancers in solution (Example 6)
Format: in vivo, human
Design: key to Metallic / Numbing / Atringent / Salt / Sweet / Sour / Bitter / Umami / Sour, mean evaluation score in solution / Numbing, mean evaluation score in solution / Astringent / Umami FF: 15-point intensity scale, 0 = none, 15 = very strong
Conditions: for Astringent / Bitter / Flinty/Mineral / Metallic / Numbing / Salt / Sour / Sweet / Umami / Umami FF / Atringent / Mineral/Flinty / Umami/brothy: solution
[1] = 1.0 to 100 ppb, listed as FE 38
[2] = 10.0 ppb, mean evaluation score
[3] = 100.0 ppb, mean evaluation score
[4] = Concentration 1, MAX, 15-point scale
[5] = Concentration 1, MEAN, 15-point scale
[6] = Concentration 1, MIN, 15-point scale
[7] = Concentration 10, MAX, 15-point scale
[8] = Concentration 10, MEAN, 15-point scale
[9] = Concentration 10, MIN, 15-point scale
[10] = Concentration 100, MAX, 15-point scale
[11] = Concentration 100, MEAN, 15-point scale
[12] = Concentration 100, MIN, 15-point scale

Question: Which “Mineral/Flinty aromatic in solution as the concentration increases” value (1.0 to 100 ppb) does the source give for [pGlu]-Cys-Val [FE-38] here?
Answer: The value was “increases very slightly”.

Question: What about the “Salt perception level in solution as the concentration increases” value (1.0 to 100 ppb) of the same substance?
Answer: The value was “increase very slightly in-mouth at 10 ppb”.

Question: And the “Umami aromatic in solution as the concentration increases” value (1.0 to 100 ppb)?
Answer: The value was “increase very slightly in-mouth at 10 ppb”.

Question: And the “Umami feeling factor in solution as the concentration increases” value (1.0 to 100 ppb)?
Answer: Its value is “shows no distinct pattern”.

Question: What about the “Mineral/Flinty aromatic in solution as the concentration increases” value [1] of the same substance?
Answer: Its value is “increase very slightly”.

Question: What about the “Salt perception level in solution as the concentration increases” value [1] of the same substance?
Answer: Its value is “increase very slightly”.

Question: What about the “Umami aromatic in solution as the concentration increases” value [1] of the same substance?
Answer: Its value is “increase very slightly”.

Question: What about the Astringent (1.0 ppb, mean evaluation score) of the same substance?
Answer: The Astringent was 0.0.

Question: And the Bitter (1.0 ppb, mean evaluation score)?
Answer: The Bitter was 0.0.

Question: And the Flinty/Mineral (1.0 ppb, mean evaluation score)?
Answer: Its Flinty/Mineral is 1.0.

Question: What about the Metallic (1.0 ppb, mean evaluation score) of the same substance?
Answer: The Metallic was 0.0.

Question: What about the Numbing (1.0 ppb, mean evaluation score) of the same substance?
Answer: The Numbing was 0.0.

Question: And the Salt (1.0 ppb, mean evaluation score)?
Answer: Its Salt is 3.1.

Question: And the Sour (1.0 ppb, mean evaluation score)?
Answer: The Sour was 0.0.

Question: And the Sweet (1.0 ppb, mean evaluation score)?
Answer: The Sweet was 0.0.

Question: And the Umami (1.0 ppb, mean evaluation score)?
Answer: The Umami was 0.2.

Question: What about the “Umami FF” value (1.0 ppb, mean evaluation score) of the same substance?
Answer: The value was 0.7.

Question: What about the Astringent [2] of the same substance?
Answer: Its Astringent is 0.0.

Question: And the Bitter [2]?
Answer: Its Bitter is 0.2.

Question: And the Flinty/Mineral [2]?
Answer: Its Flinty/Mineral is 1.1.

Question: What about the Metallic [2] of the same substance?
Answer: The Metallic was 0.0.

Question: And the Numbing [2]?
Answer: The Numbing was 0.0.

Question: What about the Salt [2] of the same substance?
Answer: The Salt was 3.7.

Question: And the Sour [2]?
Answer: Its Sour is 0.0.

Question: What about the Sweet [2] of the same substance?
Answer: Its Sweet is 0.2.

Question: And the Umami [2]?
Answer: Its Umami is 0.5.

Question: And the “Umami FF” value [2]?
Answer: Its value is 1.8.

Question: What about the Astringent [3] of the same substance?
Answer: The Astringent was 0.0.

Question: And the Bitter [3]?
Answer: The Bitter was 0.2.

Question: What about the Flinty/Mineral [3] of the same substance?
Answer: The Flinty/Mineral was 1.3.

Question: What about the Metallic [3] of the same substance?
Answer: Its Metallic is 0.0.

Question: What about the Numbing [3] of the same substance?
Answer: The Numbing was 0.0.

Question: And the Salt [3]?
Answer: The Salt was 3.7.

Question: What about the Sour [3] of the same substance?
Answer: The Sour was 0.0.

Question: What about the Sweet [3] of the same substance?
Answer: The Sweet was 0.2.

Question: And the Umami [3]?
Answer: The Umami was 0.5.

Question: What about the “Umami FF” value [3] of the same substance?
Answer: The value was 1.7.

Question: And the Atringent [4]?
Answer: Its Atringent is 0.0.

Question: What about the Bitter [4] of the same substance?
Answer: Its Bitter is 0.0.

Question: And the Metallic [4]?
Answer: The Metallic was 0.0.

Question: What about the Mineral/Flinty [4] of the same substance?
Answer: The Mineral/Flinty was 1.5.

Question: And the Numbing [4]?
Answer: The Numbing was 0.0.

Question: And the Salt [4]?
Answer: The Salt was 3.5.

Question: And the Sour [4]?
Answer: The Sour was 0.0.

Question: And the Sweet [4]?
Answer: The Sweet was 0.0.

Question: What about the Umami [4] of the same substance?
Answer: Its Umami is 1.0.

Question: What about the Umami/brothy [4] of the same substance?
Answer: The Umami/brothy was 1.0.

Question: What about the Atringent [5] of the same substance?
Answer: The Atringent was 0.0.

Question: What about the Bitter [5] of the same substance?
Answer: Its Bitter is 0.0.

Question: And the Metallic [5]?
Answer: The Metallic was 0.0.

Question: What about the Mineral/Flinty [5] of the same substance?
Answer: Its Mineral/Flinty is 1.0.

Question: What about the Numbing [5] of the same substance?
Answer: The Numbing was 0.0.

Question: And the Salt [5]?
Answer: Its Salt is 3.1.

Question: And the Sour [5]?
Answer: The Sour was 0.0.

Question: What about the Sweet [5] of the same substance?
Answer: Its Sweet is 0.0.

Question: What about the Umami [5] of the same substance?
Answer: The Umami was 0.7.

Question: What about the Umami/brothy [5] of the same substance?
Answer: The Umami/brothy was 0.2.

Question: And the Atringent [6]?
Answer: Its Atringent is 0.0.

Question: And the Bitter [6]?
Answer: Its Bitter is 0.0.

Question: What about the Metallic [6] of the same substance?
Answer: The Metallic was 0.0.

Question: And the Mineral/Flinty [6]?
Answer: Its Mineral/Flinty is 0.5.

Question: And the Numbing [6]?
Answer: Its Numbing is 0.0.

Question: What about the Salt [6] of the same substance?
Answer: The Salt was 2.8.

Question: What about the Sour [6] of the same substance?
Answer: The Sour was 0.0.

Question: What about the Sweet [6] of the same substance?
Answer: The Sweet was 0.0.

Question: And the Umami [6]?
Answer: Its Umami is 0.0.

Question: And the Umami/brothy [6]?
Answer: The Umami/brothy was 0.0.

Question: And the Atringent [7]?
Answer: The Atringent was 0.0.

Question: And the Bitter [7]?
Answer: Its Bitter is 0.8.

Question: And the Metallic [7]?
Answer: The Metallic was 0.0.

Question: What about the Mineral/Flinty [7] of the same substance?
Answer: Its Mineral/Flinty is 1.5.

Question: And the Numbing [7]?
Answer: Its Numbing is 0.0.

Question: What about the Salt [7] of the same substance?
Answer: Its Salt is 4.0.

Question: And the Sour [7]?
Answer: The Sour was 0.0.

Question: And the Sweet [7]?
Answer: Its Sweet is 1.0.

Question: What about the Umami [7] of the same substance?
Answer: Its Umami is 3.0.

Question: What about the Umami/brothy [7] of the same substance?
Answer: Its Umami/brothy is 1.0.

Question: What about the Atringent [8] of the same substance?
Answer: Its Atringent is 0.0.

Question: And the Bitter [8]?
Answer: Its Bitter is 0.2.

Question: What about the Metallic [8] of the same substance?
Answer: The Metallic was 0.0.

Question: And the Mineral/Flinty [8]?
Answer: Its Mineral/Flinty is 1.1.

Question: And the Numbing [8]?
Answer: Its Numbing is 0.0.

Question: And the Salt [8]?
Answer: Its Salt is 3.7.

Question: And the Sour [8]?
Answer: Its Sour is 0.0.

Question: And the Sweet [8]?
Answer: Its Sweet is 0.2.

Question: And the Umami [8]?
Answer: The Umami was 1.8.

Question: What about the Umami/brothy [8] of the same substance?
Answer: The Umami/brothy was 0.5.

Question: And the Atringent [9]?
Answer: Its Atringent is 0.0.

Question: What about the Bitter [9] of the same substance?
Answer: The Bitter was 0.0.

Question: What about the Metallic [9] of the same substance?
Answer: The Metallic was 0.0.

Question: And the Mineral/Flinty [9]?
Answer: Its Mineral/Flinty is 0.8.

Question: What about the Numbing [9] of the same substance?
Answer: The Numbing was 0.0.

Question: And the Salt [9]?
Answer: The Salt was 3.0.

Question: What about the Sour [9] of the same substance?
Answer: The Sour was 0.0.

Question: And the Sweet [9]?
Answer: Its Sweet is 0.0.

Question: What about the Umami [9] of the same substance?
Answer: The Umami was 0.0.

Question: What about the Umami/brothy [9] of the same substance?
Answer: The Umami/brothy was 0.0.

Question: And the Atringent [10]?
Answer: Its Atringent is 0.0.

Question: And the Bitter [10]?
Answer: The Bitter was 0.8.

Question: And the Metallic [10]?
Answer: The Metallic was 0.0.

Question: What about the Mineral/Flinty [10] of the same substance?
Answer: The Mineral/Flinty was 1.5.

Question: What about the Numbing [10] of the same substance?
Answer: Its Numbing is 0.0.

Question: And the Salt [10]?
Answer: The Salt was 4.0.

Question: And the Sour [10]?
Answer: Its Sour is 0.0.

Question: And the Sweet [10]?
Answer: The Sweet was 1.0.

Question: And the Umami [10]?
Answer: Its Umami is 3.8.

Question: And the Umami/brothy [10]?
Answer: Its Umami/brothy is 1.0.

Question: What about the Atringent [11] of the same substance?
Answer: Its Atringent is 0.0.

Question: And the Bitter [11]?
Answer: The Bitter was 0.2.

Question: And the Metallic [11]?
Answer: The Metallic was 0.0.

Question: And the Mineral/Flinty [11]?
Answer: The Mineral/Flinty was 1.3.

Question: What about the Numbing [11] of the same substance?
Answer: Its Numbing is 0.0.

Question: And the Salt [11]?
Answer: Its Salt is 3.7.

Question: What about the Sour [11] of the same substance?
Answer: The Sour was 0.0.

Question: And the Sweet [11]?
Answer: Its Sweet is 0.2.

Question: And the Umami [11]?
Answer: Its Umami is 1.7.

Question: And the Umami/brothy [11]?
Answer: Its Umami/brothy is 0.5.

Question: What about the Atringent [12] of the same substance?
Answer: The Atringent was 0.0.

Question: And the Bitter [12]?
Answer: The Bitter was 0.0.

Question: And the Metallic [12]?
Answer: The Metallic was 0.0.

Question: What about the Mineral/Flinty [12] of the same substance?
Answer: Its Mineral/Flinty is 0.8.

Question: And the Numbing [12]?
Answer: The Numbing was 0.0.

Question: And the Salt [12]?
Answer: Its Salt is 3.5.

Question: And the Sour [12]?
Answer: The Sour was 0.0.

Question: What about the Sweet [12] of the same substance?
Answer: Its Sweet is 0.0.

Question: What about the Umami [12] of the same substance?
Answer: Its Umami is 0.5.

Question: And the Umami/brothy [12]?
Answer: Its Umami/brothy is 0.0.
